Test results as given in ChEMBL document CHEMBL4819004, “Discovery of selective CDK9 degraders with enhancing antiproliferative activity through PROTAC conversion” (Eur J Med Chem, 2021).
Activity calls are given as the source filed them. The rule behind the calls is not given here.

Experiments:
B16 = experiment: Antiproliferative activity against mouse B16 cells incubated for 72 hrs by MTT assay; format: functional, cell-based; details: B16, 72 h
HepG2 = experiment: Antiproliferative activity against human HepG2 cells incubated for 72 hrs by MTT assay; format: functional, cell-based; details: HepG2, 72 h
MCF7 = experiment: Antiproliferative activity against human MCF7 cells incubated for 72 hrs by MTT assay; format: functional, cell-based; details: MCF7, 72 h
[1] = biological target: T1, Protein cereblon/Cyclin-dependent kinase 9 (Homo sapiens, UniProt P50750+Q96SW2); experiment: Protac activity at CRBN/CDK9 in human MV4-11 cells assessed as induction of CDK9 degradation by measuring downregulation of MCL-1 protein expression level at 250 nM by western blot analysis; format: cell-based; details: time 1-12 hrs, TDE = time-dependent effect
MV4-11 [2] = experiment: Induction of apoptosis in human MV4-11 cells assessed as total apoptotic cells at 30 nM after 6 hrs by AnnexinV-FITC/propidium iodide staining based flow cytometry (reference value: 9.75 %); format: functional
MV4-11 [3] = experiment: Induction of apoptosis in human MV4-11 cells assessed as total apoptotic cells at 100 nM after 6 hrs by AnnexinV-FITC/propidium iodide staining based flow cytometry (reference value: 9.75 %); format: functional
MV4-11 [4] = experiment: Induction of apoptosis in human MV4-11 cells assessed as total apoptotic cells at 250 nM after 6 hrs by AnnexinV-FITC/propidium iodide staining based flow cytometry (reference value: 9.75 %); format: functional
MV4-11 [5] = experiment: Induction of apoptosis in human MV4-11 cells assessed as total apoptotic cells at 1000 nM after 6 hrs by AnnexinV-FITC/propidium iodide staining based flow cytometry (reference value: 9.75 %); format: functional
MV4-11 [6] = experiment: Induction of apoptosis in human MV4-11 cells assessed as viable cells at 100 nM after 6 hrs by AnnexinV-FITC/propidium iodide staining based flow cytometry (reference value: 90.1 %); format: functional; details: read-out: Activity
MV4-11 [7] = experiment: Induction of apoptosis in human MV4-11 cells assessed as viable cells at 500 nM after 6 hrs by AnnexinV-FITC/propidium iodide staining based flow cytometry (reference value: 90.1 %); format: functional; details: read-out: Activity
MV4-11 [8] = experiment: Induction of apoptosis in human MV4-11 cells assessed as viable cells at 1000 nM after 6 hrs by AnnexinV-FITC/propidium iodide staining based flow cytometry (reference value: 90.1 %); format: functional; details: read-out: Activity
MV4-11 [9] = experiment: Induction of apoptosis in human MV4-11 cells assessed as early apoptotic cells at 30 nM after 6 hrs by AnnexinV-FITC/propidium iodide staining based flow cytometry (reference value: 5.36 %); format: functional
MV4-11 [10] = experiment: Induction of apoptosis in human MV4-11 cells assessed as early apoptotic cells at 250 nM after 6 hrs by AnnexinV-FITC/propidium iodide staining based flow cytometry (reference value: 5.36 %); format: functional
MV4-11 [11] = experiment: Induction of apoptosis in human MV4-11 cells assessed as early apoptotic cells at 1000 nM after 6 hrs by AnnexinV-FITC/propidium iodide staining based flow cytometry (reference value: 5.36 %); format: functional
MV4-11 [12] = experiment: Induction of apoptosis in human MV4-11 cells assessed as late apoptotic cells at 1000 nM after 6 hrs by AnnexinV-FITC/propidium iodide staining based flow cytometry (reference value: 4.29%); format: functional
MV4-11 [13] = experiment: Induction of apoptosis in human MV4-11 cells assessed as necrotic cells at 30 nM after 6 hrs by AnnexinV-FITC/propidium iodide staining based flow cytometry (reference value: 0.16 %); format: functional
MV4-11 [14] = experiment: Induction of apoptosis in human MV4-11 cells assessed as necrotic cells at 100 nM after 6 hrs by AnnexinV-FITC/propidium iodide staining based flow cytometry (reference value: 0.16 %); format: functional
MV4-11 [15] = experiment: Potency index, ratio of BAY-1143572 IC50 to test compound IC50 for antiproliferative activity against human MV4-11 cells incubated for 72 hrs by MTT assay; format: functional
[16] = biological target: Cyclin-dependent kinase 9 (Homo sapiens) (UniProt P50750); experiment: Inhibition of human full length recombinant CDK9 expressed in bacterial expression system assessed as remaining enzyme activity at 1 uM by competitive binding Kinome scan analysis
[17] = biological target: T1, Protein cereblon/Cyclin-dependent kinase 9; experiment: Protac activity at CRBN/CDK9 in human MV4-11 cells assessed as induction of CDK9 degradation by measuring downregulation of CDK9 expression level at 250 nM measured after 1 hr by western blot analysis; format: cell-based
[18] = biological target: T1, Protein cereblon/Cyclin-dependent kinase 9; experiment: Protac activity at CRBN/CDK9 in human MV4-11 cells assessed as induction of CDK9 degradation at 250 nM pretreated for 2 hrs with CDK9 inhibitor, […] followed by incubation with compound for 6 hrs by western blot analysis; format: cell-based
[19] = biological target: T1, Protein cereblon/Cyclin-dependent kinase 9; experiment: Protac activity at CRBN/CDK9 in human MV4-11 cells assessed as induction of CDK9 degradation at 250 nM pretreated for 2 hrs with E3 ligase cereblon ligand, pomalidomide followed by incubation with compound for 6 hrs by western blot analysis; format: cell-based
[20] = biological target: T1, Protein cereblon/Cyclin-dependent kinase 9; experiment: Protac activity at CRBN/CDK9 in human MV4-11 cells assessed as induction of CDK9 degradation at 250 nM pretreated for 2 hrs with proteasome inhibitor, MG132 followed by incubation with compound for 6 hrs by western blot analysis; format: cell-based
[21] = biological target: Protein cereblon/Cyclin-dependent kinase 6 (Homo sapiens) (UniProt Q00534+Q96SW2); experiment: PROTAC activity at CRBN/CDK6 in human MV4-11 cells assessed as induction of CDK6 degradation at 31.25 to 500 nM measured after 3 hrs by western blot analysis; format: cell-based; details: dose 31.25-500 nM
[22] = biological target: Protein cereblon/Cyclin-dependent kinase 2 (Homo sapiens) (UniProt P24941+Q96SW2); experiment: PROTAC activity at CRBN/CDK2 in human MV4-11 cells assessed as induction of CDK2 degradation at 31.25 to 500 nM measured after 3 hrs by western blot analysis; format: cell-based; details: dose 31.25-500 nM
[23] = biological target: T1, Protein cereblon/Cyclin-dependent kinase 9; experiment: PROTAC activity at CRBN/CDK9 in human MV4-11 cells assessed as reduction in RNA PolII CTD phosphorylation at Ser2 residue measured after 6 hrs by western blot analysis; format: cell-based; details: dose 31.25-8000 nM

IC50 (B16): 1400 nM
IC50 (HepG2): 2110 nM
IC50 (MCF7): 3.12 µM
Activity [1]: Tde
Activity [16]: < 10%
Activity [17]: Active
Activity [18]: inactive
Activity [19]: inactive
Activity [20]: inactive
Activity [21]: inactive
Activity [22]: inactive
Activity [23]: Dose-Dependent Effect
SMILES: COc1cc(F)ccc1-c1ncnc(Nc2cccc(CS(C)(=O)=NC(=O)CCCCCCCC(=O)NCCNc3cccc4c3C(=O)N(C3CCC(=O)NC3=O)C4=O)c2)n1 (stereo unspecified)
Activity (MV4-11 [2]): 22.3%
Activity (MV4-11 [3]): 26.8%
Activity (MV4-11 [4]): 59.4%
Activity (MV4-11 [5]): 80.4%
viability at 0.1 µM (MV4-11 [6]): 72.7%
viability at 0.5 µM (MV4-11 [7]): 31.3%
viability at 1 µM (MV4-11 [8]): 28.2%
Activity (MV4-11 [9]): 7.46%
Activity (MV4-11 [10]): 45.1%
Activity (MV4-11 [11]): 54.4%
Activity (MV4-11 [12]): 16%
Activity (MV4-11 [13]): 0.28%
Activity (MV4-11 [14]): 0.47%
Ratio IC50 (MV4-11 [15]): 20
